Measured values as given in US11530221B2, “Pyrimido[4,5-d]pyrimidin-2-one derivatives as protein kinase inhibitors” (KOREA INSTITUTE OF SCIENCE AND TECHNOLOGY, priority 2019, dated 2022).
pIC50: −log10 of the molar value. Read-outs that look alike come from different tables or passages of the source. Square brackets hold non-standard residues; d marks the D form. Peptide text beside a SMILES is read from it. * marks the point of attachment. X1 = Cc1ccc(Nc2ncc3c(n2)N(C)C(=O)N(c2cc(C(=O)*)ccc2C)C3)cn1; Aib = CC(C)(N)C(=O)O

Assays:
Format in all cases: biochemical
[1] = biological target: T1, LCK (Homo sapiens, UniProt P06239); experiment: IC50 inhibitory activity against LCK kinase
T1 sequence (P06239 whole entry): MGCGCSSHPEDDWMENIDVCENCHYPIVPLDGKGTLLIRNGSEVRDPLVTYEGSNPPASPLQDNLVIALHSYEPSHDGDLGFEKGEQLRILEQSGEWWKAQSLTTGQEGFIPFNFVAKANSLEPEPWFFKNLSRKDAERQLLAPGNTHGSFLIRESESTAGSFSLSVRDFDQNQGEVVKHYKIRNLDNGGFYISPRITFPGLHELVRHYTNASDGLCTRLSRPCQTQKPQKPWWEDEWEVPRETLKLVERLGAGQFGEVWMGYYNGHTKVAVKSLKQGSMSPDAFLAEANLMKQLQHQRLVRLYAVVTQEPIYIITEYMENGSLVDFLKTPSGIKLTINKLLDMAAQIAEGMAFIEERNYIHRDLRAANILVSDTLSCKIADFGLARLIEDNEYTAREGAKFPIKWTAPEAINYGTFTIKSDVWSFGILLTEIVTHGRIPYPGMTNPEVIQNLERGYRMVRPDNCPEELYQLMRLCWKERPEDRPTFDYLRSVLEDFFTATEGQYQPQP
Protocol: (§1) IC50 values were calculated by measuring the inhibitory activity against LCK, c-Src, p38a/MAPK14, ABL1, DDR1 and FGR kinases of the compounds of the present invention.

[2] = biological target: T2, c-Src (Homo sapiens, UniProt P12931); experiment: IC50 inhibitory activity against c-Src kinase
T2 sequence (P12931 whole entry): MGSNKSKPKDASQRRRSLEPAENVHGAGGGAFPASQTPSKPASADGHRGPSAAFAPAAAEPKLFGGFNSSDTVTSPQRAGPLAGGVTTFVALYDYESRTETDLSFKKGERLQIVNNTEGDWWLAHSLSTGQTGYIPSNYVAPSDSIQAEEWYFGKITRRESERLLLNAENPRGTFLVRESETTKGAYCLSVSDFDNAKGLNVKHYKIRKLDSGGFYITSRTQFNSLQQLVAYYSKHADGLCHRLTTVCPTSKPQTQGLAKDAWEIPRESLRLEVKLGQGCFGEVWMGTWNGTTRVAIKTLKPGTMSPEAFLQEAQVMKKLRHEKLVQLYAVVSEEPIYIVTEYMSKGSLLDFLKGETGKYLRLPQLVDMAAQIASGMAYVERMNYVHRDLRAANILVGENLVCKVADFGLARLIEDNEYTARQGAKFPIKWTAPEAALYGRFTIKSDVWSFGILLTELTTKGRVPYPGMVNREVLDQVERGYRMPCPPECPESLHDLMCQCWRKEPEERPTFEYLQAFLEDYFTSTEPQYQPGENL
Protocol: as §1

[3] = biological target: p38a/MAPK14 (Homo sapiens, UniProt Q16539); experiment: IC50 inhibitory activity against p38a/MAPK14 kinase
Chain of p38a/MAPK14 (Q16539 whole entry): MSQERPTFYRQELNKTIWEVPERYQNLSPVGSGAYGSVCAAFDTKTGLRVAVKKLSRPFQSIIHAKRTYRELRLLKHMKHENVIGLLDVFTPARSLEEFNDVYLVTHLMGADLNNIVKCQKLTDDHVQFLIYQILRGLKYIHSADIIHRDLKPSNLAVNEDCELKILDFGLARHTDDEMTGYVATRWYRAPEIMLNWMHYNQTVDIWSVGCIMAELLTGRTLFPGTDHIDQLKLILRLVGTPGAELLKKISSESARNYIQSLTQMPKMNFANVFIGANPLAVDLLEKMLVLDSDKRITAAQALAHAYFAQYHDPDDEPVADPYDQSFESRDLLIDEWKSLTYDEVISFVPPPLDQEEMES
Protocol: as §1

[4] = biological target: ABL1 (Homo sapiens, UniProt P00519); experiment: IC50 inhibitory activity against ABL1 kinase
Protocol: as §1

[5] = biological target: ABL1 (T315I) (Homo sapiens, UniProt P00519, T315I); experiment: IC50 inhibitory activity against ABL1 (T315I) kinase
Protocol: as §1

[6] = biological target: T3, DDR1 (Homo sapiens, UniProt Q08345); experiment: IC50 inhibitory activity against DDR1 kinase
T3 sequence (Q08345 19-913): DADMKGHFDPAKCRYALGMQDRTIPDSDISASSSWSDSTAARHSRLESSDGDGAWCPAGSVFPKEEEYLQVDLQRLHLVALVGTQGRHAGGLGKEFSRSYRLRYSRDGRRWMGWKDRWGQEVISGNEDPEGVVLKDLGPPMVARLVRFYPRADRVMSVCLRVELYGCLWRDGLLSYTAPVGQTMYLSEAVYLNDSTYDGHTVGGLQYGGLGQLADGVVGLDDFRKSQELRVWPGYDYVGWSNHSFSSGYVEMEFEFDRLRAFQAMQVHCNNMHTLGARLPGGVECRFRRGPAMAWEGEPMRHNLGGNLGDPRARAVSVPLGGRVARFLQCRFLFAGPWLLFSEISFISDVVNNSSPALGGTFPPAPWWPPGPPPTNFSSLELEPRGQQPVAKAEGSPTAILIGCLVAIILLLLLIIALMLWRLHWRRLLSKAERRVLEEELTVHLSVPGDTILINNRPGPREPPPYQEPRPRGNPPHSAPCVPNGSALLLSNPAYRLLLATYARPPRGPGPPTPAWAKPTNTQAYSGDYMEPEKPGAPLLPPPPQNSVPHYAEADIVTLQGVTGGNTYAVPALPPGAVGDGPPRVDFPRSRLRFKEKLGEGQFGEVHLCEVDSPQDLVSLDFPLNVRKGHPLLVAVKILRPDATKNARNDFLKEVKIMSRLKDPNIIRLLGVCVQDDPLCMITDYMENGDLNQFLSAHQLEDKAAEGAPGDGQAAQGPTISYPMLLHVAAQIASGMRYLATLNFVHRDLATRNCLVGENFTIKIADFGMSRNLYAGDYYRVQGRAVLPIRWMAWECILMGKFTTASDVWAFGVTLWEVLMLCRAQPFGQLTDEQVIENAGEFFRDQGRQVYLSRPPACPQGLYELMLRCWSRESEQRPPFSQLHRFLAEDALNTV
Protocol: as §1

[7] = biological target: T4, FGR (Homo sapiens, UniProt P09769); experiment: IC50 inhibitory activity against FGR kinase
T4 sequence (P09769 whole entry): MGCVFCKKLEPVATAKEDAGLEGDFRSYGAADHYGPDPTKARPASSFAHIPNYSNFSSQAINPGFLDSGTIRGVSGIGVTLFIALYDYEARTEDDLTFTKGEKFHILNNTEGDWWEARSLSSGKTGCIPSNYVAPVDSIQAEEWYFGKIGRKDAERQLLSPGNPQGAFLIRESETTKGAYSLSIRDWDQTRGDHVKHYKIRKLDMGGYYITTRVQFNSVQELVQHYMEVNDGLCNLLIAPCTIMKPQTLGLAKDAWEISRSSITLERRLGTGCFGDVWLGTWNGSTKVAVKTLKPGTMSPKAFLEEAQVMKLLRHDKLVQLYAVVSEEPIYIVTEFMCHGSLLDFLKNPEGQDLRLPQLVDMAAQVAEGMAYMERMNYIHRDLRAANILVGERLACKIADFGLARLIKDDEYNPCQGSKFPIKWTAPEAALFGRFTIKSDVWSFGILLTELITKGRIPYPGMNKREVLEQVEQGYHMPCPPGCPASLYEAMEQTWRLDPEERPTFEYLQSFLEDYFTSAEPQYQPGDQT
Protocol: as §1

[8] = biological target: T1, LCK; experiment: Full kinase panel, single concentration: LCK; conditions: read-out: residual enzyme activity (%) LCK
Protocol: (§2) In order to measure the inhibitory activity (% inhibitory capacity) against protein kinases of the compounds of the present invention, biochemical assays were performed using a full kinase panel.
(§3) The experimental compounds used herein were the compounds of Compound Nos. 1 and 33. The residual enzyme activity (%) was calculated by measuring the inhibitory activity against kinases upon treatment with the experimental compound at a single concentration of 1 μM. Kinases having calculated residual enzyme activity (%) of 30% or less (that is, inhibition of 70% or more) are shown below.

[9] = biological target: T3, DDR1; experiment: Full kinase panel, single concentration: DDR1; conditions: read-out: residual enzyme activity (%) DDR1
Protocol: as §2, §3

[10] = biological target: T4, FGR; experiment: Full kinase panel, single concentration: FGR; conditions: read-out: residual enzyme activity (%) FGR
Protocol: as §2, §3

[11] = biological target: T5, BMX (Homo sapiens, UniProt P51813); experiment: Full kinase panel, single concentration: BMX; conditions: read-out: residual enzyme activity (%) BMX
T5 sequence (P51813 1-675): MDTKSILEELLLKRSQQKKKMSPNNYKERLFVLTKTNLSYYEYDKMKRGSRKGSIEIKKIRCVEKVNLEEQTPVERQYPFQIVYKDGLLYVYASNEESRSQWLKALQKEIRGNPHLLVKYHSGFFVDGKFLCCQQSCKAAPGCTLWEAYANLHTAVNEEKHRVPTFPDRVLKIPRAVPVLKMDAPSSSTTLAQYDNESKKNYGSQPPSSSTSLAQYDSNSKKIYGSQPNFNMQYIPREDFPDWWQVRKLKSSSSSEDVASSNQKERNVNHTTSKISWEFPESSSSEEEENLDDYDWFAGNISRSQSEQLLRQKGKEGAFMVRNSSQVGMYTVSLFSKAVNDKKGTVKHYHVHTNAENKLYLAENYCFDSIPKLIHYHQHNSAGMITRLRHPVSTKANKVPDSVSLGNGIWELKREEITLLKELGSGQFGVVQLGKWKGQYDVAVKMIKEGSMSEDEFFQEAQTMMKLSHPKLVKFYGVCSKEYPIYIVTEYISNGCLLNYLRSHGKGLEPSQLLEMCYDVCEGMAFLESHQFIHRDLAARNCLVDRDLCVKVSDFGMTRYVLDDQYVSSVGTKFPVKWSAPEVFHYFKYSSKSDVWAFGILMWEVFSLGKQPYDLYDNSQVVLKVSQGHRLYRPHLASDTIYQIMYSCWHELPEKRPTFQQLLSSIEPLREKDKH
Protocol: as §2, §3

[12] = biological target: ABL2 (Homo sapiens, UniProt P42684); experiment: Full kinase panel, single concentration: ABL2; conditions: read-out: residual enzyme activity (%) ABL2
Protocol: as §2, §3

[13] = biological target: BLK (Homo sapiens, UniProt P51451); experiment: Full kinase panel, single concentration: BLK; conditions: read-out: residual enzyme activity (%) BLK
Chain of BLK (P51451 whole entry): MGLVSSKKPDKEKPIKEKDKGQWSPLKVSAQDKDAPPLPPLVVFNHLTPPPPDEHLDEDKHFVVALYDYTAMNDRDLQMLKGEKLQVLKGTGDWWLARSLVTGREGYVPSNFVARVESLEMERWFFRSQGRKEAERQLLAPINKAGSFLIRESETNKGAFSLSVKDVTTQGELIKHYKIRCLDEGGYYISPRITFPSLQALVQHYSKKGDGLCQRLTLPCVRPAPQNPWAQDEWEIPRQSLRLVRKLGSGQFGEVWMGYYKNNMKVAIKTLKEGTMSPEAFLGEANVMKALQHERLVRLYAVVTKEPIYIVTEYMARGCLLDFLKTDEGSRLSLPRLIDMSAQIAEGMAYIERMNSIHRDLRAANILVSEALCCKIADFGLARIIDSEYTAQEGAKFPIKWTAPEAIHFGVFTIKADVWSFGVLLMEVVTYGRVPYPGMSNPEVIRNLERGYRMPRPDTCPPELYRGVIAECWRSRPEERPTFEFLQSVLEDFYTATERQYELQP
Protocol: as §2, §3

[14] = biological target: T6, LYN (Homo sapiens, UniProt P07948); experiment: Full kinase panel, single concentration: LYN; conditions: read-out: residual enzyme activity (%) LYN
T6 sequence (P07948 whole entry): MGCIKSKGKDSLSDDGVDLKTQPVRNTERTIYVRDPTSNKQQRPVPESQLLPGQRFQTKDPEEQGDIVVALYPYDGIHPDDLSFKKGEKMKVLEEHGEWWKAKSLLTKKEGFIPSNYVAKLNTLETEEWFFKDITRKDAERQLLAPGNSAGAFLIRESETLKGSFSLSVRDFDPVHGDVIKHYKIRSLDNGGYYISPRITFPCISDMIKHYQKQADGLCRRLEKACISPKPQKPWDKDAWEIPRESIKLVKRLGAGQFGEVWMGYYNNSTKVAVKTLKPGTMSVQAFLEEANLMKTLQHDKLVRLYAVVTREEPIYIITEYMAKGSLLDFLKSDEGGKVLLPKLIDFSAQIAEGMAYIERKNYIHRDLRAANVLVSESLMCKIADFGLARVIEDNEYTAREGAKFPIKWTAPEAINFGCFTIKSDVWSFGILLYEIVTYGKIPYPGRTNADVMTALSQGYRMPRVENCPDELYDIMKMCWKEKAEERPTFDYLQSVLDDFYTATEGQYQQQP
Protocol: as §2, §3

[15] = biological target: T7, DDR2 (Homo sapiens, UniProt Q16832); experiment: Full kinase panel, single concentration: DDR2; conditions: read-out: residual enzyme activity (%) DDR2
T7 sequence (Q16832 22-855): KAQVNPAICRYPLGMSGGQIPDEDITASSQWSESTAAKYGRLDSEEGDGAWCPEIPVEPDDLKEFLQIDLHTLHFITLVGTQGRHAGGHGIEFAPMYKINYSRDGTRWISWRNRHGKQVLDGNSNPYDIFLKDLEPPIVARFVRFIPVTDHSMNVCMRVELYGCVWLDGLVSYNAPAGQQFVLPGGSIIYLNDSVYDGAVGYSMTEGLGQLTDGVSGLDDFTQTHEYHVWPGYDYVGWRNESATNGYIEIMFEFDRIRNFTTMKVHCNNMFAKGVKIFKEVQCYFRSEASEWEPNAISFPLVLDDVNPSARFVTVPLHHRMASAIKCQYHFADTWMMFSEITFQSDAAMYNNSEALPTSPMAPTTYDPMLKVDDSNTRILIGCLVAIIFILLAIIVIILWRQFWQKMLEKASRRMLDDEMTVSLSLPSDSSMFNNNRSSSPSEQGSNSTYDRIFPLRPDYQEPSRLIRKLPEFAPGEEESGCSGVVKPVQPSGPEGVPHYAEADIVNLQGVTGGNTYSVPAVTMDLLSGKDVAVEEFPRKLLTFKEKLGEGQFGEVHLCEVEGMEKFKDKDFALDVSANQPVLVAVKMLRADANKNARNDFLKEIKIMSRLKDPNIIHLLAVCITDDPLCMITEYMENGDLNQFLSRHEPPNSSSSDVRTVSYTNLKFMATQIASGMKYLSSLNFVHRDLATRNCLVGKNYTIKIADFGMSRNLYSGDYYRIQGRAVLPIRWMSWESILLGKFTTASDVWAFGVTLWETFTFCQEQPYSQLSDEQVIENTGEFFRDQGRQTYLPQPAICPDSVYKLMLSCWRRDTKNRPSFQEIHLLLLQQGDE
Protocol: as §2, §3

[16] = biological target: RAF1 (Homo sapiens, UniProt P04049); experiment: Full kinase panel, single concentration: RAF1; conditions: read-out: residual enzyme activity (%) RAF1
Chain of RAF1 (P04049 whole entry): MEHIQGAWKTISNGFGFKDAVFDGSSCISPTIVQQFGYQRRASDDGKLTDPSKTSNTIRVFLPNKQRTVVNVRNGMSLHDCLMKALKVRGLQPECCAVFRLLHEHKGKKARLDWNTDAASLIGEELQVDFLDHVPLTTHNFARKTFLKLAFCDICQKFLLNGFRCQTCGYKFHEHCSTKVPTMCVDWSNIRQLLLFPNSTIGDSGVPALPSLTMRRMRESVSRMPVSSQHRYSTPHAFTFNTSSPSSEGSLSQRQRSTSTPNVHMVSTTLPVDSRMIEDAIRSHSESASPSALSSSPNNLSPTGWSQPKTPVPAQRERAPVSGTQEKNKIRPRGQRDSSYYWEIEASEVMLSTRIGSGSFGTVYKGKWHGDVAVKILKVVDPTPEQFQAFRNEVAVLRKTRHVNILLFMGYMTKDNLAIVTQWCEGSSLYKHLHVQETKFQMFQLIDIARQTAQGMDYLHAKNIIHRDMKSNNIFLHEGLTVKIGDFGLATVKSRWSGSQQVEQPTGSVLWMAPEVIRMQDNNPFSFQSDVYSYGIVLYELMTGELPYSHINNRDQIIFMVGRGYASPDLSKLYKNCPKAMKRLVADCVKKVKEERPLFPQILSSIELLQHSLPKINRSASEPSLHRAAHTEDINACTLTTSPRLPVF
Protocol: as §2, §3

[17] = biological target: T2, c-Src; experiment: Full kinase panel, single concentration: c-Src; conditions: read-out: residual enzyme activity (%) c-Src
Protocol: as §2, §3

[18] = biological target: CSK (Homo sapiens, UniProt P41240); experiment: Full kinase panel, single concentration: CSK; conditions: read-out: residual enzyme activity (%) CSK
Chain of CSK (P41240 whole entry): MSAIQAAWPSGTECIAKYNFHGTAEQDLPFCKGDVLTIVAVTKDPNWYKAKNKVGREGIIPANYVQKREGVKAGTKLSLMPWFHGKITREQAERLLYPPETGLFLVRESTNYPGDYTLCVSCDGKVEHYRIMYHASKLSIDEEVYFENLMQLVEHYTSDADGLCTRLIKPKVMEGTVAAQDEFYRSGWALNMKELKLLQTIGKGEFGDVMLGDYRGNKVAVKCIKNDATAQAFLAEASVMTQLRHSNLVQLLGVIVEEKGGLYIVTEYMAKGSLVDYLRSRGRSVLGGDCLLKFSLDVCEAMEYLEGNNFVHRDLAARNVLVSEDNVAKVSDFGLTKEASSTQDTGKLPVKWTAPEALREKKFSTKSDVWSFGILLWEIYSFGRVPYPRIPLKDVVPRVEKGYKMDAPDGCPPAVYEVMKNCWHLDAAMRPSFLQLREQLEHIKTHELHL
Protocol: as §2, §3

[19] = biological target: HCK (Homo sapiens, UniProt P08631); experiment: Full kinase panel, single concentration: HCK; conditions: read-out: residual enzyme activity (%) HCK
Protocol: as §2, §3

[20] = biological target: T6, LYN; experiment: IC50 inhibitory activity against LYN kinase

Cc1ccc(Nc2ncc3c(n2)N(C)C(=O)N(c2cc(C(=O)N[C@H](C(=O)N4CCC[C@H]4C(=O)NC(C)(C)C(=O)N[C@@H](CC(C)C)C(=O)N(C)C)C(C)C)ccc2C)C3)cn1 [Example 1, (S)—N-(1-(((S)-1-(dimethylamino)-4-methyl-1-oxopentan-2-yl)amino)-2-methyl-1-oxopropan-2-yl)-1-((4-methyl-3-(1-methyl-7-((6-methylpyridin-3-yl)amino)-2-oxo-1,4-dihydropyrimido[4,5-d]pyrimidin-3(2H)-yl)benzoyl)-L-valyl)pyrrolidine-2-carboxamide] (X1-VP[Aib]L-NMe2) showed a pIC50 [1] of 6.70 to 9.00, a pIC50 [2] of under 6.22 and a pIC50 [3] of under 6.22. The pIC50 [4] was 6.40 to 6.70, the pIC50 [5] was under 6.22 and the pIC50 [6] was 6.70 to 9.00. For the same compound, the pIC50 [7] was 6.70 to 9.00, the remaining activity at 1 µM [8] was at most 30% and the remaining activity at 1 µM [9] was at most 30%. For the same compound, the remaining activity at 1 µM [10] was at most 30%, the remaining activity at 1 µM [11] was at most 30% and the remaining activity at 1 µM [12] was at most 30%. For the same compound, the remaining activity at 1 µM [13] was at most 30%, the remaining activity at 1 µM [14] was at most 30% and the remaining activity at 1 µM [15] was at most 30%. It also gave a remaining activity at 1 µM [16] of at most 30%, a remaining activity at 1 µM [17] of at most 30% and a remaining activity at 1 µM [18] of at most 30%. The remaining activity at 1 µM [19] was at most 30%.
With Cc1ccc(Nc2ncc3c(n2)N(C)C(=O)N(c2cc(NC(=O)c4ccc5c(c4)N(Cc4ccccc4)C(=O)[C@H](C)N=C5c4ccccc4)ccc2C)C3)cn1 [Example 31, (S)-1-benzyl-3-methyl-N-(4-methyl-3-(1-methyl-7-((6-methylpyridin-3-yl)amino)-2-oxo-1,4-dihydropyrimido[4,5-d]pyrimidin-3(2H)-yl)phenyl)-2-oxo-5-phenyl-2,3-dihydro-1H-benzo[e][1,4]diazepine-8-carboxamide] the pIC50 ([1]; read-out: LCK IC50) was 6.70 to 9.00, the pIC50 ([2]; read-out: c-Src IC50) was 6.70 to 9.00 and the pIC50 ([3]; read-out: p38a/MAPK14 IC50) was 6.70 to 9.00. For the same compound, the pIC50 ([4]; read-out: ABL1 IC50) was 6.70 to 9.00, the pIC50 ([5]; read-out: ABL1 (T315I) IC50) was under 6.22 and the pIC50 [20] was 6.70 to 9.00.
CC1=N[C@@H](Cc2ccccc2)C(=O)Nc2cc(C(=O)Nc3ccc(C)c(N4Cc5cnc(Nc6ccc(C)nc6)nc5N(C)C4=O)c3)ccc21 [Example 34, (S)-3-benzyl-5-methyl-N-(4-methyl-3-(1-methyl-7-((6-methylpyridin-3-yl)amino)-2-oxo-1,4-dihydropyrimido[4,5-d]pyrimidin-3(2H)-yl)phenyl)-2-oxo-2,3-dihydro-1H-benzo[e][1,4]diazepine-8-carboxamide] showed a pIC50 ([1]; read-out: LCK IC50) of 6.70 to 9.00, a pIC50 ([2]; read-out: c-Src IC50) of 6.70 to 9.00 and a pIC50 [20] of 6.70 to 9.00.
Work on CC1=N[C@H](Cc2ccccc2)C(=O)Nc2cc(C(=O)Nc3ccc(C)c(N4Cc5cnc(Nc6ccc(C)nc6)nc5N(C)C4=O)c3)ccc21 [Example 35, (R)-3-benzyl-5-methyl-N-(4-methyl-3-(1-methyl-7-((6-methylpyridin-3-yl)amino)-2-oxo-1,4-dihydropyrimido[4,5-d]pyrimidin-3(2H)-yl)phenyl)-2-oxo-2,3-dihydro-1H-benzo[e][1,4]diazepine-8-carboxamide] yielded a pIC50 ([1]; read-out: LCK IC50) of 6.70 to 9.00, a pIC50 ([2]; read-out: c-Src IC50) of 6.70 to 9.00 and a pIC50 [20] of 6.70 to 9.00.
Work on Cc1ccc(Nc2ncc3c(n2)N(C)C(=O)N(c2cc(NC(=O)c4ccc5c(c4)N(C)C(=O)[C@H](CC(C)C)N=C5c4ccccc4)ccc2C)C3)cn1 [Example 37, (S)-3-isobutyl-1-methyl-N-(4-methyl-3-(1-methyl-7-((6-methylpyridin-3-yl)amino)-2-oxo-1,4-dihydropyrimido[4,5-d]pyrimidin-3(2H)-yl)phenyl)-2-oxo-5-phenyl-2,3-dihydro-1H-benzo[e][1,4]diazepine-8-carboxamide] yielded a pIC50 ([1]; read-out: LCK IC50) of 6.70 to 9.00, a pIC50 ([2]; read-out: c-Src IC50) of 6.70 to 9.00 and a pIC50 [20] of 6.70 to 9.00.
Compound C=CCN1C(=O)[C@H](CC(C)C)N=C(c2ccccc2)c2ccc(C(=O)Nc3ccc(C)c(N4Cc5cnc(Nc6ccc(C)nc6)nc5N(C)C4=O)c3)cc21 [Example 38, (S)-1-allyl-3-isobutyl-N-(4-methyl-3-(1-methyl-7-((6-methylpyridin-3-yl)amino)-2-oxo-1,4-dihydropyrimido[4,5-d]pyrimidin-3(2H)-yl)phenyl)-2-oxo-5-phenyl-2,3-dihydro-1H-benzo[e][1,4]diazepine-8-carboxamide] has a pIC50 ([1]; read-out: LCK IC50) of 6.70 to 9.00, a pIC50 ([2]; read-out: c-Src IC50) of 6.40 to 6.70 and a pIC50 [20] of 6.70 to 9.00.
